Laboratory results as given in ChEMBL document CHEMBL4814007, “Structure-based discovery of SIAIS001 as an oral bioavailability ALK degrader constructed from Alectinib” (Eur J Med Chem, 2021).
Active and inactive are the calls of the source. No cut-off for these calls is given here.

What was measured:
[1] = target: T1, ALK tyrosine kinase receptor (Homo sapiens, UniProt Q9UM73); test: Inhibition of ALK phosphorylation in human SR cells at 0.5 nM; type: cell-based
Target sequence in this assay (Q9UM73 19-1620 limits assumed): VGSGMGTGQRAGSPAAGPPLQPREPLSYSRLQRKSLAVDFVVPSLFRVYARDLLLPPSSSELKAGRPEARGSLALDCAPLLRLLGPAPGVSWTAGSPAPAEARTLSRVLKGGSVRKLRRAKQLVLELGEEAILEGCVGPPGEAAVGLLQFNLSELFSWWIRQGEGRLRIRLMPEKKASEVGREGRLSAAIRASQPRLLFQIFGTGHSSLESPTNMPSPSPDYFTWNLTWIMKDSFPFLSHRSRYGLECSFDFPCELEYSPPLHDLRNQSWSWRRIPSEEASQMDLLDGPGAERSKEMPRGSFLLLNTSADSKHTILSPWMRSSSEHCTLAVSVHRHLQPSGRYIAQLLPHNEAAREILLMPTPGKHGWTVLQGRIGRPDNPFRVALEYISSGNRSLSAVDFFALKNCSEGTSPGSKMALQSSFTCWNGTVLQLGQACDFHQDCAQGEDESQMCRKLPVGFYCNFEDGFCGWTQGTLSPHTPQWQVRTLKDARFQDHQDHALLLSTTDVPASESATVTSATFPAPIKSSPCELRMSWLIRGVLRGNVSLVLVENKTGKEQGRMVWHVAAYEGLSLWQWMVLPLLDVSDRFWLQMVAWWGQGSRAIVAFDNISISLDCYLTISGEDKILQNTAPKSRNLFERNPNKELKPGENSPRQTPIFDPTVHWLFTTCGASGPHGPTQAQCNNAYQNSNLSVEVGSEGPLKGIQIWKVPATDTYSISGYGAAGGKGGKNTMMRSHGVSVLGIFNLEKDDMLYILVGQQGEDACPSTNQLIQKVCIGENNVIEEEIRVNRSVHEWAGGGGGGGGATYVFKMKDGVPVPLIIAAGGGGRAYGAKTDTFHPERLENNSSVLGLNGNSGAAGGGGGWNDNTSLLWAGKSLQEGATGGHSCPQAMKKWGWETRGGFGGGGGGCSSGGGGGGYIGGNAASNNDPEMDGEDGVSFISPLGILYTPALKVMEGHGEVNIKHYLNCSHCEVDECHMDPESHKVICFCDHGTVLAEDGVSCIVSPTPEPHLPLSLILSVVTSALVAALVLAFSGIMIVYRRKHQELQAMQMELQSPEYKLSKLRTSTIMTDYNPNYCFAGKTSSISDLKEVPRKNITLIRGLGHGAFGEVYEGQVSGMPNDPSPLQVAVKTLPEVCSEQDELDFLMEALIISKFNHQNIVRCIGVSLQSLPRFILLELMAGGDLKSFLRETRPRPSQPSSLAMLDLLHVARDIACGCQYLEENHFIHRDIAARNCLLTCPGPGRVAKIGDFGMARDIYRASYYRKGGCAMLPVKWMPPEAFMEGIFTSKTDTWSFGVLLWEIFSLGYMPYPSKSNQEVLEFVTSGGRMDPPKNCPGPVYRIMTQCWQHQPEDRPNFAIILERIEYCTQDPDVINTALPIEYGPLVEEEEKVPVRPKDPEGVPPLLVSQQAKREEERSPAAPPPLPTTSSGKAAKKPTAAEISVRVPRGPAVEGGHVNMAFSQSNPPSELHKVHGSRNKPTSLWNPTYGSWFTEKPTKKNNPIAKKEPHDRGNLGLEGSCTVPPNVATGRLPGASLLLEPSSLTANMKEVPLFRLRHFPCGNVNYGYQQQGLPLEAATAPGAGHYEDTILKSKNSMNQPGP

[2] = target: T1, ALK tyrosine kinase receptor; test: Inhibition of ALK (unknown origin)
Target sequence in this assay (Q9UM73 whole entry): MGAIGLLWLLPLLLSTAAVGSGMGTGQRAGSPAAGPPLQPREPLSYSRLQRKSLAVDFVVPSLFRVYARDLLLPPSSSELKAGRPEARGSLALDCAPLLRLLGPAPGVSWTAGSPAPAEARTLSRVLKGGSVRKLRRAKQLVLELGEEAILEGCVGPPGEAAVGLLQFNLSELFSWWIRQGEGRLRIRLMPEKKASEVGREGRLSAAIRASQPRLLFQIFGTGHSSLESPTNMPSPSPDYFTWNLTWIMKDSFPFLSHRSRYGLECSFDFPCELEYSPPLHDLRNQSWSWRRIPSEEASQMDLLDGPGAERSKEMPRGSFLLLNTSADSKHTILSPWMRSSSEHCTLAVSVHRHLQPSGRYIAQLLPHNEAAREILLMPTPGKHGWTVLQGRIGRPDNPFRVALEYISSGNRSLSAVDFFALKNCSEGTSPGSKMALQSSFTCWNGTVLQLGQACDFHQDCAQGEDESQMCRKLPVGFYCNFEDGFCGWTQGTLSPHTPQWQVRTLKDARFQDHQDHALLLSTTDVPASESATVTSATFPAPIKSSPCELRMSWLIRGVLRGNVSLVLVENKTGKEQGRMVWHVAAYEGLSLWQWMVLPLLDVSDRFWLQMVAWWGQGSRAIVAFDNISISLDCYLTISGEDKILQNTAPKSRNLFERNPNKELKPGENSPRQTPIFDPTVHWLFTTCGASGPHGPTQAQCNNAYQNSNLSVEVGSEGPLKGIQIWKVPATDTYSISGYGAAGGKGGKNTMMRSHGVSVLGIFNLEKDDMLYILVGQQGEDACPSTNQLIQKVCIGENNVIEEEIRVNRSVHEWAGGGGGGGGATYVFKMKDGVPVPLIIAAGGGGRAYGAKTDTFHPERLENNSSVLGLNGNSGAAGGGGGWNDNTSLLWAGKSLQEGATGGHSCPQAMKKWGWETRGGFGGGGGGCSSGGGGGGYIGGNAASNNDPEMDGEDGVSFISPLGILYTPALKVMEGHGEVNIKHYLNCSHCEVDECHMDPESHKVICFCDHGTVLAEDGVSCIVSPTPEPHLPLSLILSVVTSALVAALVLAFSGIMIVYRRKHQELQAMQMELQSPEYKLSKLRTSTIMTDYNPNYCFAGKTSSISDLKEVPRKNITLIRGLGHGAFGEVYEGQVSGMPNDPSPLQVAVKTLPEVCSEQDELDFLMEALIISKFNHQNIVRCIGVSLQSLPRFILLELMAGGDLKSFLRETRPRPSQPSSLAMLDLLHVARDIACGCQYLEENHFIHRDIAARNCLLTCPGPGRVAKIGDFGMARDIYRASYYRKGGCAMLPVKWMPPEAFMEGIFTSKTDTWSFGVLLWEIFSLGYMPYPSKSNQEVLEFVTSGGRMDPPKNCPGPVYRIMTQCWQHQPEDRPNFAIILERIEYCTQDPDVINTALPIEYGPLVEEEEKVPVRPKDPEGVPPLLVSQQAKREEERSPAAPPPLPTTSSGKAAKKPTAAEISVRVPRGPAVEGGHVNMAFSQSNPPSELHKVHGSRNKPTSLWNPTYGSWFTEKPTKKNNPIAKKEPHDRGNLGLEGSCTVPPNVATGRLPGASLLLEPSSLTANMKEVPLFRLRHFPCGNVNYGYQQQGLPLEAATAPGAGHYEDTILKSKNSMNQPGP

SR [3] = test: Induction of cell cycle arrest in human SR cells assessed as increase in accumulation at S phase at 100 nM incubated for 24 hrs; type: functional, cell-based
[4] = Stability in liver microsomes (unknown origin); type: ADME, Microsome
SR [5] = test: Potency index, ratio of ceritinib IC50 to test compound IC50 for antiproliferative activity against ALK positive human SR cells; type: functional
[6] = target: T2, Protein cereblon/ALK tyrosine kinase receptor (Homo sapiens, UniProt Q9UM73+Q96SW2); test: Protac activity at CRBN/ALK in human SR cells assessed as protein abundance at 50 nM by Western blot analysis (reference value: 1); type: cell-based
Target sequence in this assay (Q96SW2 whole entry partner): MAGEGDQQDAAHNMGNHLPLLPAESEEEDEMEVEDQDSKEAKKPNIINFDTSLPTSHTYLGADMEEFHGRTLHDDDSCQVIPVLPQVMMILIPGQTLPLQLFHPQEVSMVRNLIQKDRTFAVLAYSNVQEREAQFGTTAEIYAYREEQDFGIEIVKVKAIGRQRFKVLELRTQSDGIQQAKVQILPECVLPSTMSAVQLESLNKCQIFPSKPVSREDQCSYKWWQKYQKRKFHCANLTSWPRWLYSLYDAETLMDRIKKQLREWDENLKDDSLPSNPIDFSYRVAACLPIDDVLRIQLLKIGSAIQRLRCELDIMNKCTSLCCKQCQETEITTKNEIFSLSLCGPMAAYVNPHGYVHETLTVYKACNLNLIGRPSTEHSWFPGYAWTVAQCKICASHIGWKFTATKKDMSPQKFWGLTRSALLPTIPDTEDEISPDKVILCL
Target sequence in this assay (Q9UM73 19-1620 limits assumed): as the sequence (Q9UM73 19-1620 limits assumed) above

[7] = target: T2, Protein cereblon/ALK tyrosine kinase receptor; test: Protac activity at CRBN/ALK in human SR cells assessed as protein abundance at 0.05 nM by Western blot analysis (reference value: 1); type: cell-based
Target sequence in this assay (Q96SW2 whole entry partner): as the sequence (Q96SW2 whole entry partner) above
Target sequence in this assay (Q9UM73 19-1620 limits assumed): as the sequence (Q9UM73 19-1620 limits assumed) above

SR [8] = test: Induction of cell cycle arrest in human SR cells assessed as increase in accumulation at G1/S phase at 100 nM incubated for 24 hrs; type: functional, cell-based
[9] = target: T2, Protein cereblon/ALK tyrosine kinase receptor; test: Protac activity at CRBN/ALK in human SR cells assessed as induction of ALK degradation by Western blot analysis; type: cell-based
Target sequence in this assay (Q9UM73 whole entry): as the sequence (Q9UM73 whole entry) above
Target sequence in this assay (Q96SW2 whole entry): as the sequence (Q96SW2 whole entry partner) above

[10] = Cmax in rat at 2 mg/kg, ip; type: ADME, organism-based; parameters: route intraperitoneal, dose 2 mg/kg; conditions: in vivo
[11] = target: T2, Protein cereblon/ALK tyrosine kinase receptor; test: Protac activity at CRBN/ALK in human SR cells assessed as increase in ALK degradation at 50 nM in presence of MLN4924/MG132 by Western blot analysis; type: cell-based
Target sequence in this assay (Q96SW2 whole entry partner): as above
Target sequence in this assay (Q9UM73 19-1620 limits assumed): as the sequence (Q9UM73 19-1620 limits assumed) above

[12] = target: T1, ALK tyrosine kinase receptor; test: Inhibition of ALK in human SR cells assessed as reduction in STAT3 phosphorylation at 50 nM; type: cell-based
Target sequence in this assay (Q9UM73 19-1620 limits assumed): as above

[13] = target: T2, Protein cereblon/ALK tyrosine kinase receptor; test: Protac activity at CRBN/ALK in human SR cells assessed as protein abundance at 5 nM by Western blot analysis (reference value: 1); type: cell-based
Target sequence in this assay (Q96SW2 whole entry partner): as the sequence (Q96SW2 whole entry partner) above
Target sequence in this assay (Q9UM73 19-1620 limits assumed): as the sequence (Q9UM73 19-1620 limits assumed) above

[14] = Toxicity in rat at 10 mg/kg, po assessed as adverse effect; type: organism-based; conditions: in vivo
[15] = target: T2, Protein cereblon/ALK tyrosine kinase receptor; test: Protac activity at CRBN/ALK in human SR cells assessed as protein abundance at 0.5 nM by Western blot analysis (reference value: 1); type: cell-based
Target sequence in this assay (Q96SW2 whole entry partner): as the sequence (Q96SW2 whole entry partner) above
Target sequence in this assay (Q9UM73 19-1620 limits assumed): as the sequence (Q9UM73 19-1620 limits assumed) above

[16] = Oral bioavailability in rat at 10 mg/kg; type: ADME, organism-based; conditions: in vivo
[17] = target: T2, Protein cereblon/ALK tyrosine kinase receptor; test: Protac activity at CRBN/ALK in human SR cells assessed as increase in ALK degradation at 50 nM in presence of MG132 by Western blot analysis; type: cell-based
Target sequence in this assay (Q96SW2 whole entry partner): as the sequence (Q96SW2 whole entry partner) above
Target sequence in this assay (Q9UM73 19-1620 limits assumed): as the sequence (Q9UM73 19-1620 limits assumed) above

SR [18] = test: Antiproliferative activity against ALK positive human SR cells; type: functional, cell-based
[19] = target: T2, Protein cereblon/ALK tyrosine kinase receptor; test: Protac activity at CRBN/ALK in human SR cells assessed as increase in ALK degradation at 500 nM by Western blot analysis; type: cell-based
[20] = Plasma concentration in rat at 10 mg/kg, po measured after 4 hrs; type: ADME, organism-based
[21] = target: T2, Protein cereblon/ALK tyrosine kinase receptor; test: Protac activity at CRBN/ALK in human SR cells assessed as protein abundance at 500 nM by Western blot analysis (reference value: 1); type: cell-based
[22] = target: T2, Protein cereblon/ALK tyrosine kinase receptor; test: Protac activity at CRBN/ALK in human SR cells assessed as induction of ALK degradation at 0.05 to 500 nM by Western blot analysis relative to control; type: cell-based; conditions: dose 0.05-500 nM

- inhibition [1]: Active
- IC50 [2]: 3.3 nM
- Stabilty [4]: Stable
- Activity [6]: 0.37
- Activity [7]: 1.03
- DC50 [9]: 3.9 µM
- Cmax [10]: 83.5 ng/mL
- Activity [11]: inactive
- inhibition [12]: Active
- Activity [13]: 0.56
- Activity [15]: 0.92
- bioavailability [16]: 16%
- Activity [17]: inactive
- Activity [19]: Active
- concentration at 4 h [20]: 100 ng/mL
- Activity [21]: 0.37
- Emax [22]: 70.3%
SMILES: CCc1cc2c(cc1N1CCC(N3CCN(CCCC#Cc4cccc5c4CN(C4CCC(=O)NC4=O)C5=O)CC3)CC1)C(C)(C)c1[nH]c3cc(C#N)ccc3c1C2=O (configuration not stated)
- Activity (SR [3]): inactive
- Ratio (SR [5]): 5
- Activity (SR [8]): Active
- Activity [14]: Non-Toxic
- IC50 (SR [18]): 0.9 nM
